# According to US20230339937A1, “CONDENSED RING COMPOUNDS THAT INHIBIT H-PGDS” (SATO PHARMACEUTICAL CO., LTD., priority 2020, published 2023):
# Biological target: T1, Recombinant human H-PGDS (Homo sapiens, UniProt O60760)
# T1 construct: made in house; host or cells: E. coli
# Assay: H-PGDS inhibitory activity (prostaglandin D2 production from prostaglandin H2, measured by LC-MS/MS)
# Type: biochemical
# Conditions: recombinant human H-PGDS 1.0 nM expressed in E. coli; prostaglandin H2 25 μM; preincubated 15 minutes on ice, reacted on ice for 1 minute; concentration that inhibits prostaglandin D2 production by 50%
# Procedure: The H-PGDS inhibitory activity of each Example compound was measured according to the method reported by LIN, Jiang. et al. (NO 2007/041634).
# Recombinant human H-PGDS (final concentration: 1.0 nM) expressed in E. coli was mixed in an assay buffer containing 20 mM Tris-HCl (pH 8.0), 2 mM magnesium chloride, 2 mM reduced glutathione, and 0.5 mg/mL γ-globulin, and 150 μL of the mixture was dispensed into a 8-strip PCR tube (BM Equipment Co., Ltd.). Test compounds (Example compounds) (16.5 μL) at various concentrations dissolved in DMSO were added and the mixture was preincubated for 15 minutes on ice.
# Prostaglandin H2 (final concentration: 25 μM) (Cayman Chemical) was dispensed into another 8-strip PCR tube, and the solvent was dried and solidified using a vacuum concentrator (Thermo Fisher Scientific). To the dried and solidified prostaglandin H2 was added 50 μL of the assay buffer containing H-PGDS and each test compound after the preincubation, and the mixture was reacted on ice for 1 minute. 45 μL of this mixture was added to 45 μL of a stop solution (50 mM aqueous citric acid solution containing iron chloride at a final concentration of 4 mg/mL) to stop the reaction. Then, the reaction solution was deproteinized, added to a 96 square deep well plate (SHONANMARUHACHI STEC Co., Ltd.), and the prostaglandin D2 concentration in the reaction solution was measured by LC-MS/MS. ACQUITY (registered trademark) TQD (Waters) was used as a measuring instrument.
# Prostaglandin Da production activity (f) in the group with each test compound when a value obtained by subtracting the amount of production of prostaglandin D2 in the group without enzyme, which is non-specific production of prostaglandin D2, from the amount of production of prostaglandin Da in the group without test compound (DMSO-addition group) in each 8-strip PCR tube is 100% was calculated.
# T1 sequence (O60760 whole entry): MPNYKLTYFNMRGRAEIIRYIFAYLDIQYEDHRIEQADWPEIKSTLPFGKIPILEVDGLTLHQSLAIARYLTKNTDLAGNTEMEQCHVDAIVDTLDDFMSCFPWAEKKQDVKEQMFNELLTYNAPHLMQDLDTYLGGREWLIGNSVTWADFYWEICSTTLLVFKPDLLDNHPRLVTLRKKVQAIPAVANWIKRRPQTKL
row,Compound,IC50 [nM]
1,"Cc1ccc(N2CCC(NC(=O)c3ccc(-c4nccc5occc45)cc3)CC2)nc1 [Example 151, 4-(furo[3,2-c]pyridin-4-yl)-N-[1-(5-methylpyridin-2-yl)piperidin-4-yl]benzamide]",1.4
2,"CC(=O)N[C@H]1CC[C@H](NC(=O)c2ccc(-c3nccc4occc34)cc2)CC1 [Example 296, N-(trans-4-acetamidocyclohexyl)-4-(furo[3,2-c]pyridin-4-yl)benzamide]",2.9
3,"O=C(N[C@@H]1CC[C@H](O)C1)c1ccc(-c2nccc3occc23)cc1 (relative stereo) [Example 267, 4-(furo[3,2-c]pyridin-4-yl)-N-(cis-3-hydroxycyclopenthyl)benzamide]",3.1
4,"Cc1cnc(-c2ccc(C(=O)N[C@H]3CC[C@H](C(C)(C)O)CC3)cc2)c2cc[nH]c12 [Example 339, N-[trans-4-(2-hydroxypropan-2-yl)cyclohexyl]-4-(7-methyl-1H-pyrrolo[3,2-c]pyridin-4-yl)benzamide]",1.4
5,"Cn1cc(CNC(=O)c2ccc(-c3nccc4[nH]ccc34)cc2)cn1 [Example 55, N-[(1-methyl-1H-pyrazol-4-yl)methyl]-4-(1H-pyrrolo[3,2-c]pyridin-4-yl)benzamide]",1.2
6,"CC(C)(O)[C@@H]1CC[C@@H](NC(=O)c2ccc(-c3nccc4occc34)cc2)CO1 [Example 214, 4-(furo[3,2-c]pyridin-4-yl)-N-[(3R,6S)-6-(2-hydroxypropan-2-yl)tetrahydro-2 H-pyran-3-yl]benzamide]",3.4
7,"C[C@]1(O)CC[C@H](NC(=O)c2ccc(-c3nccc4occc34)c(F)c2)CC1 [Example 346, 3-fluoro-4-(furo[3,2-c]pyridin-4-yl)-N-(trans-4-hydroxy-4-methylcyclohexyl)benzamide]",2
8,"O=C(N[C@H]1COCCN(c2ncccn2)C1)c1ccc(-c2nccc3occc23)cc1 [Example 225, (R)-4-(furo[3,2-c]pyridin-4-yl)-N-[4-(pyrimidin-2-yl)-1,4-oxazepan-6-yl]benzamide]",6.5
9,"O=C1CCC(NC(=O)c2ccc(-c3nccc4occc34)cc2)CC1 [Example 303, 4-(furo[3,2-c]pyridin-4-yl)-N-(4-oxocyclohexyl)benzamide]",2.1
10,"N#Cc1cccc(CNC(=O)c2ccc(-c3nccc4occc34)cc2)c1 [Example 73, N-(3-cyanobenzyl)-4-(furo[3,2-c]pyridin-4-yl)benzamide]",4.8
11,"CC(C)(O)[C@H]1CC[C@H](NC(=O)c2ccc(-c3nc(CO)cc4occc34)cc2)CC1 [Example 319, 4-[6-(hydroxymethyl)furo[3,2-c]pyridin-4-yl]-N-[trans-4-(2-hydroxypropan-2-yl)cyclohexyl]benzamide]",1.6
12,"COc1ccc(CN2CCC(NC(=O)c3ccc(-c4nccc5occc45)cc3)CC2)cc1Cl [Example 244, N-[1-(3-chloro-4-methoxybenzyl)piperidin-4-yl]-4-(furo[3,2-c]pyridin-4-yl)benzamide]",4
13,"CC(C)(O)[C@H]1CC[C@H](NC(=O)c2ccc(-c3nc(C(N)=O)cc4occc34)cc2)CC1 [Example 318, 4-(4-{[trans-4-(2-hydroxypropan-2-yl)cyclohexyl]carbamoyl}phenyl)furo[3,2-c]pyridine-6-carboxamide]",367
14,"CC(C)(O)CNC(=O)c1ccc(-c2nccc3[nH]ccc23)cc1 [Example 32, N-(2-hydroxy-2-methylpropyl)-4-(1H-pyrrolo[3,2-c]pyridin-4-yl)benzamide]",1.5
15,"Cc1cc2occc2c(-c2ccc(C(=O)N[C@H]3CC[C@H](C4(O)CC4)CC3)cc2)n1 [Example 334, N-[trans-4-(1-hydroxycyclopropyl)cyclohexyl]-4-(6-methylfuro[3,2-c]pyridin-4-yl)benzamide]",2
16,"Cn1cc(Br)c(CNC(=O)c2ccc(-c3nccc4[nH]ccc34)cc2)n1 [Example 50, N-[(4-bromo-1-methyl-1H-pyrazol-3-yl)methyl]-4-(1H-pyrrolo[3,2-c]pyridin-4-yl)benzamide]",1.4

# Further compounds by falling IC50, results first:
row,IC50 [nM],Compound
1,27,"CC(C)(O)[C@]1(O)CC[C@@H](NC(=O)c2ccc(-c3nccc4occc34)cc2)CC1 [Example 350, 4-(furo[3,2-c]pyridin-4-yl)-N-[cis-4-hydroxy-4-(2-hydroxypropan-2-yl)cyclohexyl]benzamide]"
2,15,"CCc1cnc(-c2ccc(C(=O)N[C@H]3CC[C@H](C(C)(C)O)CC3)cc2)c2ccoc12 [Example 138, 4-(7-ethylfuro[3,2-c]pyridin-4-yl)-N-[trans-4-(2-hydroxypropan-2-yl)cyclohexyl]benzamide]"
3,13,"CCCCCCNC(=O)c1ccc(-c2nccc3occc23)cc1 [Example 76, 4-(furo[3,2-c]pyridin-4-yl)-N-hexylbenzamide]"
4,3.2,"Cn1nnnc1N1CC[C@H](NC(=O)c2ccc(-c3nccc4occc34)cc2)C1 [Example 231, (S)-4-(furo[3,2-c]pyridin-4-yl)-N-[1-(1-methyl-1H-tetrazol-5-yl)pyrrolidin-3-yl]benzamide]"
5,2.4,"O=C(NC1C2CC3CC1CC(O)(C3)C2)c1ccc(-c2nccc3occc23)cc1 (stereo not drawn) [Example 272, 4-(furo[3,2-c]pyridin-4-yl)-N-(trans-5-hydroxyadamantan-2-yl)benzamide]"
6,2.3,"Cc1cc2occc2c(-c2ccc(C(=O)N[C@H]3CC[C@H](O)CC3)cc2)n1 [Example 333, N-(trans-4-hydroxycyclohexyl)-4-(6-methylfuro[3,2-c]pyridin-4-yl)benzamide]"
7,2.1,"O=C(NC1CCN(c2ncc(CO)cn2)CC1)c1ccc(-c2nccc3occc23)cc1 [Example 160, 4-(furo[3,2-c]pyridin-4-yl)-N-{1-[5-(hydroxymethyl)pyrimidin-2-yl]piperidin-4-yl}benzamide]"
8,1.9,"O=C(NC12CCC(O)(CC1)CC2)c1ccc(-c2nccc3occc23)cc1 [Example 260, 4-(furo[3,2-c]pyridin-4-yl)-N-(4-hydroxybicyclo[2.2.2]octan-1-yl)benzamide]"
9,1.8,"O=C(N[C@@H]1COCCN(c2ncccn2)C1)c1ccc(-c2nccc3occc23)cc1 [Example 224, (S)-4-(furo[3,2-c]pyridin-4-yl)-N-[4-(pyrimidin-2-yl)-1,4-oxazepan-6-yl]benzamide]"
10,1.7,"CC(C)(O)c1cnc(N2CCC(NC(=O)c3ccc(-c4nccc5occc45)cc3)CC2)nc1 [Example 185, 4-(furo[3,2-c]pyridin-4-yl)-N-{1-[5-(2-hydroxypropan-2-yl)pyrimidin-2-yl]piperidin-4-yl}benzamide]"
11,1.6,"O=C(NC1CCCCC1)c1ccc(-c2nccc3[nH]ccc23)cc1 [Example 5, N-cyclohexyl-4-(1H-pyrrolo[3,2-c]pyridin-4-yl)benzamide]"
12,1.6,"Cc1cc2occc2c(-c2ccc(C(=O)N[C@H]3CCN(c4ncccn4)C3)cc2)n1 [Example 332, (S)-4-(6-methylfuro[3,2-c]pyridin-4-yl)-N-[1-(pyrimidin-2-yl)pyrrolidin-3-yl]benzamide]"
13,1.5,"NC(=O)c1cnc(N2CC[C@H](NC(=O)c3ccc(-c4nccc5occc45)cc3)C2)nc1 [Example 202, (S)-2-(3-[4-(furo[3,2-c]pyridin-4-yl)benzamide]pyrrolidin-1-yl)pyrimidine-5-carboxamide]"
14,1.5,"O=C(NC1CCN(c2ncc(CO)o2)CC1)c1ccc(-c2nccc3occc23)cc1 [Example 255, 4-(furo[3,2-c]pyridin-4-yl)-N-{1-[5-(hydroxymethyl)oxazol-2-yl]piperidin-4-yl}benzamide]"
15,1.4,"CCCCNC(=O)c1ccc(-c2nccc3[nH]ccc23)cc1 [Example 7, N-butyl-4-(1H-pyrrolo[3,2-c]pyridin-4-yl)benzamide]"
16,1.4,"O=C(N[C@H]1CCN(c2cc(Cl)ncn2)C1)c1ccc(-c2nccc3occc23)cc1 [Example 227, (S)—N-[1-(6-chloropyrimidin-4-yl)pyrrolidin-3-yl]-4-(furo[3,2-c]pyridin-4-yl)benzamide]"
17,1.3,"CC(C)(O)C1CC2(CC(NC(=O)c3ccc(-c4nccc5occc45)cc3)C2)C1 (stereo not drawn) [Example 122, 4-(furo[3,2-c]pyridin-4-yl)-N-[6-(2-hydroxypropan-2-yl)spiro[3.3]heptan-2-yl]benzamide]"
18,0.65,"O=C(NCCCO)c1ccc(-c2nccc3[nH]ccc23)cc1 [Example 30, N-(3-hydroxypropyl)-4-(1H-pyrrolo[3,2-c]pyridin-4-yl)benzamide]"
19,0.63,"O=C(N[C@H]1CCN(c2ncccn2)C1)c1ccc(-c2nccc3occc23)cc1 [Example 191, (S)-4-(furo[3,2-c]pyridin-4-yl)-N-[1-(pyrimidin-2-yl)pyrrolidin-3-yl]benzamide]"
20,0.45,"O=C(NC1CCN(c2ccccn2)CC1)c1ccc(-c2nccc3occc23)cc1 [Example 118, 4-(furo[3,2-c]pyridin-4-yl)-N-[1-(pyridin-2-yl)piperidin-4-yl]benzamide]"
